Laboratory results from patent US20050124683A1, “HIV protease inhibitors, compositions containing the same, their pharmaceutical uses and materials for their synthesis” (priority 2003, published 2005).
pEC50, pKi: −log10 of the molar value. Like-named read-outs stand apart in the source and are kept apart here.

Tests used:
HIV-1 protease = target: T1, HIV-1 protease (Human immunodeficiency virus type 1 group M subtype B, UniProt P04585, Q495S); test: HIV-1 Protease RET assay (Ki, resonance energy transfer); assay type: biochemical; conditions: Q7S mutant HIV-1 protease
T1 construct: made in house
Procedure: Ki's for the inhibitors of HIV-1 protease were determined using a resonance energy transfer (RET) assay. […] This enzyme is first partially purified as inclusion bodies from cell lysate. It is then solublized in 8M urea and passed through a Q-Sepharose column (Pharmacia) for further purification. To refold this protein, samples containing Q7S is dialyzed into 50 mM sodium phosphate pH 7.0, 50 mM NaCl, 10 mM DTT, and 10% glycerol.
The commercially available peptide substrate (Molecular Probes Cat. # H-2930) RE(EDANS)SQNYPIVQK(DABCYL)R is used to assess activity and Ki's. This peptide is cleaved quantitatively by HIV-1 Pr at the Tyr-Pro bond. The EDANS fluorophore absorbs at 340 nm and emits at 490 nm. The reaction is carried out in a 96 well plate in a total volume of 100 µL and is run for 12 minutes at 37C under steady-state conditions with 5 µM substrate and 2 nM active dimer enzyme concentration. The literature value Km for this substrate and enzyme is 103+/−8 μM (See Matayoshi, et al., “Novel Fluorogenic Substrates for Assaying Retroviral Proteases by Resonance Energy Transfer,” Science 247, 954 (1990)). The buffer for this reaction is 0.1M sodium acetate pH 4.8, 1M NaCl, 1 mM EDTA, 5 mM dithiothreitol, 10% dimethyl sulfoxide and 1 mg/ml bovine serum albumin. Inhibition curves are fit using the Morrison tight binding equation.

HIV-1 = test: Antiviral EC50 in HIV-infected T-cell lines (CPE inhibition / susceptibility assays); assay type: cell-based; conditions: Human immunodeficiency virus 1, T-cell
Procedure: T-cell lines, CEM-SS, and MT-2, and viruses HIV-1 RF and HIV-1 NL4-3 (pNL4-3) were obtained from the National Institutes of Health (AIDS Research and Reference Reagent Program, Bethesda, MD).
The ability of compounds to protect cells against HIV infection was measured by the […] dye reduction method, essentially as described (See Pauwels, R. Balzarini, J. Baba, M. Snoeck, R. Schols, D. Herdewijn, P. Desmyter, J. and De Clercq, E. 1988, “Rapid and automated tetrazolium-based colorimetric assay for the detection of anti-HIV compounds,”. J Virol. Methods., 20: 309-321 and Weislow, O. S. Kiser, R. Fine, D. L. Bader, J. Shoemaker, R. H. and Boyd, M. R. 1989. “New soluble-formazan assay for HIV-1 cytopathic effects: application to high-flux screening of synthetic and natural products for AIDS-antiviral activity”. J. Natl. Cancer Inst. 81:577-586). Subject cells were infected with test virus at an moi of 0.025 to 0.819 or mock infected with medium only and added at 2×10^4 cells per well into 96 well plates containing half-log dilutions of test compounds. Six days later, 50 μl of XTT (1 mg/ml XTT tetrazolium, […] phenazine methosulfate) was added to the wells and the plate was reincubated for four hours. Viability, as determined by the amount of XTT formazan produced, was quantified spectrophotometrically by absorbance at 450 nm. Data from CPE assays were expressed as the percent of formazan produced in compound-treated cells compared to formazan produced in wells of uninfected, compound-free cells. The fifty percent effective concentration (EC50) was calculated as the concentration of compound that effected an increase in the percentage of formazan production in infected, compound-treated cells to 50% of that produced by uninfected, compound-free cells. The 50% cytotoxicity concentration (CC50) was calculated as the concentration of compound that decreased the percentage of formazan produced in uninfected, compound-treated cells to 50% of that produced in uninfected, compound-free cells. The therapeutic index was calculated by dividing the cytotoxicity (CC50) by the antiviral activity (EC50).
Compounds were tested in phenotypic susceptibility assays at Virologic, Inc., (See Petropoulos C. J., Parkin N. T., Limoli K. L., Lie Y. S., Wrin T., Huang W., Tian H., Smith D., Winslow G. A., Capon D J, Whitcomb J M. 2000, “A novel phenotypic drug susceptibility assay for human immunodeficiency virus type 1,” Antimicrob Agents Chemother 44(4):920-928) or using the assay described here. MT-2 cells were infected with either HIV-1 NL4-3 or HIV-1 NL4-3(I84V/L90M) and incubated in the presence of serial 0.5 log dilutions of test compounds. Three days later, culture supernatants were collected and virus production, as determined by p24 ELISA, was assayed. Percent inhibition was calculated as p24 concentration in compound-treated samples as compared to infected, compound-free controls. Inhibition of viral replication is determined by measuring reduction in HIV p24 present in the culture supernatant, using a Beckman-Coulter p24 HIV-1 Ag EIA kit and following the supplied protocol. Absorbance is read on a MRX microplate reader (Dynex Technologies). The EC50 was calculated as the concentration of compound that effected a decrease in the p24 production by infected, compound-treated cells to 50% of that produced by infected, compound-free cells.

[1] = read-out: EC50 (wt) (nm), wt virus
[2] = read-out: Ave. EC50, average, unit inferred

| SMILES | pKi (HIV-1 protease; read-out: Ki (nm)) | pEC50 (HIV-1; [1]) | pKi (HIV-1 protease; average, read-out: Ave. Ki) | pEC50 (HIV-1; [2]) |
| --- | --- | --- | --- | --- |
| Cc1c(O)cccc1C(=O)N[C@@H](Cc1ccccc1)[C@H](O)C(=O)N1CC(O)C(C)(C)[C@H]1C(=O)NCC(C)C (some centres unmarked) | 9.15 | 6.35 |  |  |
| Cc1cc(O)c(C)c(C(=O)N[C@@H](Cc2ccccc2)[C@H](O)C(=O)N2COC(C)(C)[C@H]2C(=O)NC2CCc3ccccc32)c1 (some centres unmarked) | > 10.00 | 7.21 |  |  |
| CCCNC(=O)C1N(C(=O)[C@@H](O)[C@H](Cc2ccccc2)NC(=O)c2cc(C)cc(O)c2C)CC(F)(F)C1(C)C (some centres unmarked) | > 10.00 | 8.05 |  |  |
| C=CCNC(=O)[C@H]1N(C(=O)[C@@H](O)[C@H](Cc2ccccc2)NC(=O)c2cccc3c2CCN3)CC(F)(F)C1(C)C | > 10.00 | 7.80 |  |  |
| C=CCNC(=O)[C@H]1N(C(=O)[C@@H](O)[C@H](Cc2ccccc2)NC(=O)c2cc(C)cc(O)c2C)CSC1(C)C [Example D12, (R)-3-[(2S,3S)-2-Hydroxy-3-(3-hydroxy-2,5-dimethyl-benzoylamino)-4-phenyl-butyryl]-5,5-dimethyl-thiazolidine-4-carboxylic acid allylamide] |  |  | 9.15 | 7.80 |
| C=CCNC(=O)[C@H]1N(C(=O)[C@@H](O)[C@H](Cc2ccccc2)NC(=O)c2cc(C)cc(O)c2C)CC(F)(F)C1(C)C [Example D13, (S)-4,4-Difluoro-1-[(2S,3S)-2-hydroxy-3-(3-hydroxy-2,5-dimethyl-benzoylamino)-4-phenyl-butyryl]-3,3-dimethyl-pyrrolidine-2-carboxylic acid allylamide] |  |  | > 10.00 | 7.77 |
| Cc1c(O)cccc1C(=O)N[C@@H](Cc1cccc(F)c1)[C@H](O)C(=O)N1CC(F)(F)C(C)(C)C1C(=O)NCC(C)C (some centres unmarked) | > 10.00 | 7.89 |  |  |
| Cc1cnccc1CNC(=O)C1N(C(=O)[C@@H](O)[C@H](Cc2ccccc2)NC(=O)c2cccc(O)c2C)CC(F)(F)C1(C)C (some centres unmarked) | > 10.00 | 8.10 |  |  |
| Cc1ccccc1CNC(=O)[C@H]1N(C(=O)[C@@H](O)[C@H](Cc2ccccc2)NC(=O)c2cccc(O)c2C)CC(O)C1(C)C (some centres unmarked) | > 10.00 | 6.85 |  |  |
| C=CCNC(=O)C1N(C(=O)[C@@H](O)[C@H](Cc2cccc(F)c2)NC(=O)c2cccc(O)c2C)CC(F)(F)C1(C)C (stereo partly drawn) [Example D10, (R)-3-((2S,3R)-4,4-Difluoro-1-[4-(3-fluoro-phenyl)-2-hydroxy-3-(3-hydroxy-2-methyl-benzoylamino)-butyryl])-3,3-dimethyl-pyrrolidine-2-carboxylic acid allylamide] |  |  | > 10.00 | 7.80 |
| CC(C)CNC(=O)[C@H]1N(C(=O)[C@@H](O)[C@H](Cc2ccccc2)NC(=O)c2cccc3c2CCN3)CC(F)(F)C1(C)C | > 10.00 | 7.46 |  |  |
| Cc1cc(O)c(C)c(C(=O)N[C@@H](Cc2cccc(F)c2)[C@H](O)C(=O)N2CC(F)(F)C(C)(C)C2C(=O)NCC(C)C)c1 (some centres unmarked) | > 10.00 | 7.96 |  |  |
| C=CCNC(=O)[C@H]1N(C(=O)[C@@H](O)[C@H](Cc2cccc(F)c2)NC(=O)c2cccc3c2CCN3)CC(F)(F)C1(C)C | > 10.00 | 7.46 |  |  |
| Cc1c(O)cccc1C(=O)N[C@@H](Cc1ccccc1)[C@H](O)C(=O)N1CC(F)(F)C(C)(C)[C@H]1C(=O)NCc1ccccc1F | > 10.00 | 7.80 |  |  |
| COC1CN(C(=O)[C@@H](O)[C@H](Cc2ccccc2)NC(=O)c2cccc(O)c2C)[C@H](C(=O)NCc2ccccc2F)C1(C)C (some centres unmarked) | 9.47 | 6.00 |  |  |
| CCNC(=O)[C@H]1N(C(=O)[C@@H](O)[C@H](Cc2ccccc2)NC(=O)c2c(C)ccc(O)c2C)CC(F)(F)C1(C)C | > 10.00 | 7.46 |  |  |
| Cc1ccccc1CNC(=O)[C@H]1N(C(=O)[C@@H](O)[C@H](Cc2ccccc2)NC(=O)c2cccc(O)c2C)CC(C)(O)C1(C)C (some centres unmarked) | > 10.00 | 7.48 |  |  |
| CCC(C)NC(=O)[C@H]1N(C(=O)[C@@H](O)[C@H](Cc2ccccc2)NC(=O)c2cccc(O)c2C)CC(F)(F)C1(C)C (some centres unmarked) | > 10.00 | 7.51 |  |  |
| Cc1cc(O)c(C)c(C(=O)N[C@@H](Cc2ccccc2)[C@H](O)C(=O)N2CC(F)(F)C(C)(C)[C@H]2C(=O)NCc2ccccn2)c1 | > 10.00 | 7.21 |  |  |
